Results taken from ChEMBL document CHEMBL4393671, “Design of a Cyclin G Associated Kinase (GAK)/Epidermal Growth Factor Receptor (EGFR) Inhibitor Set to Interrogate the Relationship of EGFR and GAK in Chordoma” (J Med Chem, 2019).
Active and inactive are the calls of the source. No cut-off for these calls is given here.

Tests used:
[1] = cells; format: ADME, cell-based; settings: Homo sapiens, WS1, 72 h
Description: Cytotoxicity against human WS1 cells measured after 72 hrs by alamar blue assay

[2] = molecular target: T1, Cyclin-G-associated kinase (Homo sapiens, UniProt O14976); experiment: Inhibition of tracer 5 binding to human N-terminal nano luciferase-fused GAK expressed in HEK293 cells measured after 2 hrs by nanoBRET assay; format: cell-based; settings: hek293
T1 sequence (O14976 whole entry): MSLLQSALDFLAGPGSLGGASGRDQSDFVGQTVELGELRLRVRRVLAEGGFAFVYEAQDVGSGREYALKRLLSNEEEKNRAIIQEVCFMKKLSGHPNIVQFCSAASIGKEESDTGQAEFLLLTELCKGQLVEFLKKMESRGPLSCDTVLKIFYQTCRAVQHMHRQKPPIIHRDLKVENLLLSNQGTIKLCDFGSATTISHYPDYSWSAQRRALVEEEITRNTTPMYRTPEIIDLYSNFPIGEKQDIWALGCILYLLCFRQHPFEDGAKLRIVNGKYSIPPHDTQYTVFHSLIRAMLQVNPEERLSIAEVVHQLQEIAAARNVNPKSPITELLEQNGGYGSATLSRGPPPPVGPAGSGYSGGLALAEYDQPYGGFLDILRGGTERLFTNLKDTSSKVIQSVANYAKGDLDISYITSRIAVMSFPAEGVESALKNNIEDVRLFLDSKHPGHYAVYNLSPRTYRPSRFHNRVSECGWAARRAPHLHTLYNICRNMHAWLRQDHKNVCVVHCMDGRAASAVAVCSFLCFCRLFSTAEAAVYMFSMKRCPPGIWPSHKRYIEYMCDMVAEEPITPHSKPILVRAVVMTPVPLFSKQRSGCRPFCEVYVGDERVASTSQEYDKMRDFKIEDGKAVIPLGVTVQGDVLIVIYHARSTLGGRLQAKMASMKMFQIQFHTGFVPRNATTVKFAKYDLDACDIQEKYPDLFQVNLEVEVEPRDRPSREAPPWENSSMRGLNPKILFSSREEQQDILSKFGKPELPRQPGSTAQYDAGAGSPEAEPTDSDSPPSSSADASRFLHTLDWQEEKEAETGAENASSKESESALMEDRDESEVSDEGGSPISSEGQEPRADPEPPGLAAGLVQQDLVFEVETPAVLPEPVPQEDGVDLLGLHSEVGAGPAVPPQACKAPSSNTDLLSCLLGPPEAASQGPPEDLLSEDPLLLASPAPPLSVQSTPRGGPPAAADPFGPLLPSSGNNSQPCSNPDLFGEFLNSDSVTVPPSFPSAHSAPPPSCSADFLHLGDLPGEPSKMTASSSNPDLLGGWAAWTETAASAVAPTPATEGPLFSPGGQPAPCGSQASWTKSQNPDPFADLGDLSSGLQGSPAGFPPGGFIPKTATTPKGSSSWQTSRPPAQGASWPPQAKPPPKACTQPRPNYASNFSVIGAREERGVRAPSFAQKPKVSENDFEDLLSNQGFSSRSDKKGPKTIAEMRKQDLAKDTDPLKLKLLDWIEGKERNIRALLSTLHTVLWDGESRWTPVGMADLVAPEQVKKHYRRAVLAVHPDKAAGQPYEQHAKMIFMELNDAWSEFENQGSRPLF

[3] = molecular target: T2, Cyclin-G-associated kinase (Homo sapiens) (UniProt O14976); experiment: Binding affinity to GAK in human SUM159 cell lysates by multiplexed inhibitor bead profiling-based LC-MS/MS analysis; format: subcellular; settings: Lysate
T2 sequence (whole entry): T1 sequence (O14976 whole entry)

[4] = cells; format: functional, cell-based; settings: Homo sapiens, 72 h
Description: Antiproliferative activity against human UMCHOR1 cells measured after 72 hrs by alamar blue assay

[5] = Effect on total EGFR expression in human UCH2 cells at 1 to 10 uM measured after 4 hrs by Western blot analysis; format: ADME, cell-based
[6] = cells; format: functional, cell-based; settings: Homo sapiens, 72 h; remark: listed apart in the source
Description: Antiproliferative activity against human CH22 cells measured after 72 hrs by alamar blue assay

[7] = cells; format: functional, cell-based; settings: Homo sapiens, UCH1, 72 h
Description: Antiproliferative activity against human UCH1 cells measured after 72 hrs by alamar blue assay

[8] = molecular target: T3, Epidermal growth factor receptor (Homo sapiens, UniProt P00533); format: cell-based;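 for IC50: human A431 cells pretreated 90 min, then EGF stimulated, sandwich ELISA measured decrease in EGF-induced receptor autophosphorylation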;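 for Kd: KINOMEscan competition binding with recombinant partial wild-type human EGFR (residues R669–V1011) produced in bacteria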
T3 sequence (P00533 whole entry, the tested form may be a part): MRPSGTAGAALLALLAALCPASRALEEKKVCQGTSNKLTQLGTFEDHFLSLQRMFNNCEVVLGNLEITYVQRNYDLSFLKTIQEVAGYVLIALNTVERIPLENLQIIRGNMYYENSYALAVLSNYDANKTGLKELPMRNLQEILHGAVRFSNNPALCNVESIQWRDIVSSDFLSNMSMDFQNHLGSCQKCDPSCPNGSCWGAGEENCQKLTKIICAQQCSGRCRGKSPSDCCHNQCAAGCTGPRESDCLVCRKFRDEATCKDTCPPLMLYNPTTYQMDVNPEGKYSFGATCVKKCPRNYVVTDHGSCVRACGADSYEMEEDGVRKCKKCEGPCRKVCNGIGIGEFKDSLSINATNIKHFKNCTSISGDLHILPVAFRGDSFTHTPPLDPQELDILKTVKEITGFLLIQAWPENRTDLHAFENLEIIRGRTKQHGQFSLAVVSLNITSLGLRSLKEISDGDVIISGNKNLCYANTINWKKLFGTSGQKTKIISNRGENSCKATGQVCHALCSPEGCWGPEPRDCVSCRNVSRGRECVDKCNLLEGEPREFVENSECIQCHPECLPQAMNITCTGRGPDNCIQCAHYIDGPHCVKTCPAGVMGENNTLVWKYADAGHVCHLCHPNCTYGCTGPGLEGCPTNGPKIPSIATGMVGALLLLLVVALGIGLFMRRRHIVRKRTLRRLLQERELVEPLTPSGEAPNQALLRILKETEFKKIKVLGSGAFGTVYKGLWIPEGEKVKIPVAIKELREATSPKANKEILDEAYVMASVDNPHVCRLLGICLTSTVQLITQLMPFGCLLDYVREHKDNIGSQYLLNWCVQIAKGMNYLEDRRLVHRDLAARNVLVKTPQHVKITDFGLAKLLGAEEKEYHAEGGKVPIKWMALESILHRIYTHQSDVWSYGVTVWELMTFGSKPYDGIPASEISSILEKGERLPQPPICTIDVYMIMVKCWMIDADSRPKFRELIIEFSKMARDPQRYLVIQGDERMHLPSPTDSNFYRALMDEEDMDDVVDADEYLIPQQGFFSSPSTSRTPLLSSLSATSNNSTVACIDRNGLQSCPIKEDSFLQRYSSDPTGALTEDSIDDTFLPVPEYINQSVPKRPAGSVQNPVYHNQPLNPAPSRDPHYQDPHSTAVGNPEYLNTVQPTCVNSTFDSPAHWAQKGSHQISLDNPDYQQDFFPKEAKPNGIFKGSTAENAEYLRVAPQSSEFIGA
Description: Inhibition of EGFR in human A431 cells assessed as reduction in EGF-stimulated EGFR autophosphorylation preincuabted for 90 mins followed by EGF-stimulation by sandwich-ELISA

[9] = molecular target: T3, Epidermal growth factor receptor; experiment: Inhibition of EGFR in human UCH1 cells assessed as reduction in EGF-induced EGFR phosphorylation at Y1068 residue at 1 uM preincubated for 4 hrs followed by EGF--stimulation and measured after 15 mins by Western blot analysis relative to control; format: cell-based
[10] = molecular target: Receptor-interacting serine/threonine-protein kinase 2 (Homo sapiens) (UniProt O43353); experiment: Binding affinity to RIPK2 in human SUM159 cell lysates by multiplexed inhibitor bead profiling-based LC-MS/MS analysis; format: subcellular; settings: Lysate
Chain of Receptor-interacting serine/threonine-protein kinase 2 (Homo sapiens) (O43353 whole entry): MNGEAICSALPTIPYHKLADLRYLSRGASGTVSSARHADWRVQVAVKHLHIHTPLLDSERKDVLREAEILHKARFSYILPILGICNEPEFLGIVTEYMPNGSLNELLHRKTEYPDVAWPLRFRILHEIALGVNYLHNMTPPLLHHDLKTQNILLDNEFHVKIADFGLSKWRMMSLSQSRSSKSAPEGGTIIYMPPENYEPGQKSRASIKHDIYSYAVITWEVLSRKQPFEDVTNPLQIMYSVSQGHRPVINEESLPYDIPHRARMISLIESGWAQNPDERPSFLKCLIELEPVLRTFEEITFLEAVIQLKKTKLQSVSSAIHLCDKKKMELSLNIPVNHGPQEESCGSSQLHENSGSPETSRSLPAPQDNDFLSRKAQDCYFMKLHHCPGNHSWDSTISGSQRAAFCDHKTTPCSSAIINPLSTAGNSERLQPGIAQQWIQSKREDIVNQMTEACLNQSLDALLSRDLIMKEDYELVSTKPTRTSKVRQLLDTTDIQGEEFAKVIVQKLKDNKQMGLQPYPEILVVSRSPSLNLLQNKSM

[11] = molecular target: T3, Epidermal growth factor receptor; experiment: Inhibition of EGFR in human UCH2 cells assessed as reduction in EGF-induced EGFR phosphorylation at Y1068 residue at 1 uM preincubated for 4 hrs followed by EGF--stimulation and measured after 15 mins by Western blot analysis relative to control; format: cell-based
[12] = cells; format: functional, cell-based; settings: Homo sapiens, 72 h; remark: listed apart in the source
Description: Antiproliferative activity against human UCH12 cells measured after 72 hrs by alamar blue assay

[13] = molecular target: T3, Epidermal growth factor receptor
Description: Binding affinity to wild-type human partial length EGFR (R669 to V1011 residues) expressed in bacterial expression system by Kinomescan method

[14] = Effect on total EGFR expression in human UCH1 cells at 1 to 10 uM measured after 4 hrs by Western blot analysis; format: ADME, cell-based
[15] = cells; format: functional, cell-based; settings: Homo sapiens, 72 h; remark: listed apart in the source
Description: Antiproliferative activity against human UCH14 cells measured after 72 hrs by alamar blue assay

[16] = molecular target: T1, Cyclin-G-associated kinase; experiment: Binding affinity to wild-type human partial length GAK (G13 to Y338 residues) expressed in bacterial expression system by Kinomescan method
[17] = molecular target: T4, STE20-related kinase adapter protein alpha (Homo sapiens) (UniProt Q7RTN6); experiment: Binding affinity to LYK5 in human SUM159 cell lysates by multiplexed inhibitor bead profiling-based LC-MS/MS analysis; format: subcellular; settings: Lysate
T4 sequence (whole entry): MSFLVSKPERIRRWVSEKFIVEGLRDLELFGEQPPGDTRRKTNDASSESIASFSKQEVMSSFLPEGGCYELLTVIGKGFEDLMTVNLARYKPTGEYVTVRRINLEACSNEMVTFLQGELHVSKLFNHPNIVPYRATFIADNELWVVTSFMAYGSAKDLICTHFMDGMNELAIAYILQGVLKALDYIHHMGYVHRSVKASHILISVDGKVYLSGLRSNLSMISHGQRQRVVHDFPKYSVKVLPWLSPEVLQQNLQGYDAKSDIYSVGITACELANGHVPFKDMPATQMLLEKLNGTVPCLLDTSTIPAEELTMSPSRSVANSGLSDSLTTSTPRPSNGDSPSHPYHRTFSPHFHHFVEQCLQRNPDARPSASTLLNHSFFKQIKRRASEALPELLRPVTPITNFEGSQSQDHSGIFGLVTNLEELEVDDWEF

[18] = molecular target: T3, Epidermal growth factor receptor; experiment: Inhibition of EGFR in human UCH2 cells assessed as reduction in EGF-induced EGFR phosphorylation at Y1068 residue at 10 uM preincubated for 4 hrs followed by EGF--stimulation and measured after 15 mins by Western blot analysis relative to control; format: cell-based

IC50 [1]: 7.7 µM | IC50 [2]: 0.5 µM | Activity [3]: Active | IC50 [4]: 14 µM | IC50 [6]: 13 µM | IC50 [7]: 2.1 µM | IC50 [8]: 0.042 µM | inhibition [9]: 0% | Activity [10]: Active | inhibition [11]: 0% | IC50 [12]: 30 µM | Kd [13]: 0.00027 µM | IC50 [15]: 13 µM | Kd [16]: 0.0076 µM | Activity [17]: Active | inhibition [18]: 71.3%
Compound: C#Cc1cccc(Nc2ccnc3cc(OC)c(OC)cc23)c1
Activity [5]: Non-Toxic | Activity [14]: Non-Toxic
